Here are results for nine compounds from US20080096932A1, “3-Pyridinylethylcarboxamide Derivatives as Fungicides” (priority 2004, published 2008).

One experiment has as its system Alternaria brassicae. As to the kind of experiment: in vivo test on Alternaria brassicae (Leaf spot of crucifers). To be noted: for effectiveness on Alternaria brassicae: at 330 ppm, comparison compounds of WO 01/11965. Here is the method:
in vivo test on Alternaria brassicae (Leaf spot of crucifers)
The active ingredient tested is prepared by potter homogenisation in a concentrated suspension type formulation at 100 g/l. This suspension is then diluted with water to obtain the desired active material concentration.
Radish plants (Pernot variety) in starter cups, sown on a 50/50 peat soil-pozzolana substrate and grown at 18-20° C., are treated at the cotyledon stage by spraying with the aqueous suspension described above.
Plants, used as controls, are treated with an aqueous solution not containing the active material.
After 24 hours, the plants are contaminated by spraying them with an aqueous suspension of Alternaria brassicae spores (40,000 spores per cm^3). The spores are collected from a 12 to 13 days-old culture.
The contaminated radish plants are incubated for 6-7 days at about 18° C., under a humid atmosphere.
Grading is carried out 6 to 7 days after the contamination, in comparison with the control plants.

The subject of another experiment is Peronosporaparasitica. As to the kind of experiment: efficacy against Peronospora parasitica. Type of experiment: in vivo. To be noted: at 330 ppm; comparison compound of WO 01/11965.
In another experiment the test system is Botrytis cinerea. As to the kind of experiment: effectiveness on Botrytis cinerea. Type of experiment: in vivo. As to conditions: at 330 ppm; comparison compounds of WO 01/11965.

On to `Cn1cc(C(=O)NCCc2ccc(C(F)(F)F)nc2)c(C(F)(F)F)n1` [Compound A-1, N-[2-(6-trifluoromethyl-3-pyridinyl)ethyl]-1-methyl-3-(trifluoromethyl)-1H-pyrazole-4-carboxamide], for which, in the experiment on Alternaria brassicae (330 ppm, radish plants sprayed 24 h before contamination, grading 6 to 7 days after contamination vs control plants), the “protection (good (at least 50%) or total)” value was “at least 50%”.

As to `O=C(Cc1cccs1)NCc1ncc(C(F)(F)F)cc1Cl` [compound 101, N-{[3-chloro-5-(trifluoromethyl)-2-pyridinyl]methyl}-5-thienylacetamide], in the experiment with Peronosporaparasitica, the “efficacy against Peronospora parasitica” value is listed as “no efficacy”. Further, in the experiment with Botrytis cinerea, the “effectiveness on Botrytis cinerea” value was “no efficacy”. In the experiment with Alternaria brassicae, the “effectiveness on Alternaria brassicae” value is recorded as “poor efficacy”.

Regarding `CCNC(=O)C(Cc1ncc(C(F)(F)F)cc1Cl)NC(=O)c1ccccc1` (stereo not shown) [compound 304, N-{1-ethylcarbamoyl-2-[3-chloro-5-(trifluoromethyl)-2-pyridinyl]-ethyl}-benzamide], in the experiment with Botrytis cinerea, the “effectiveness on Botrytis cinerea” value was “zero effectiveness”.

For the compound `CCNC(=O)C(Cc1ncc(C(F)(F)F)cc1Cl)NC(=O)c1ccc(Cl)cc1` (stereo not shown) [compound 306, N-{1-ethylcarbamoyl-2-[3-chloro-5-(trifluoromethyl) -2-pyridinyl]ethyl}-4-chlorobenzamide], the “effectiveness on Botrytis cinerea” value in the experiment with Botrytis cinerea was “zero effectiveness”.

Consider `CCNC(=O)C(Cc1ncc(C(F)(F)F)cc1Cl)NC(=O)c1cccc([N+](=O)[O-])c1` (stereo not shown) [compound 307, N-{1-ethylcarbamoyl-2-[3-chloro-5-(trifluoromethyl)-2-pyridinyl]ethyl}-3-nitrobenzamide], for which the “effectiveness on Botrytis cinerea” value in the experiment with Botrytis cinerea is reported as “zero effectiveness”. The “effectiveness on Alternaria brassicae” value with Alternaria brassicae is given as “poor effectiveness”.

For the compound `CCNC(=O)C(Cc1ncc(C(F)(F)F)cc1Cl)NC(=O)c1ccccc1Br` (stereo not shown) [compound 310, N-{1-ethylcarbamoyl-2-[3-chloro-5-(trifluoromethyl)-2-pyridinyl]ethyl}-2-bromobenzamide], the “effectiveness on Botrytis cinerea” value in the experiment with Botrytis cinerea is recorded as “zero effectiveness”.

For `CNC(=O)C(Cc1ncc(C(F)(F)F)cc1Cl)NC(=O)c1ccccc1` (stereo not shown) [compound 314, N-{1-methylcarbamoyl-2-[3-chloro-5-(trifluoromethyl) -2-pyridinyl]ethyl}-benzamide], in the experiment on Botrytis cinerea, the “effectiveness on Botrytis cinerea” value is reported as “zero effectiveness”.

For `CNC(=O)C(Cc1ncc(C(F)(F)F)cc1Cl)NC(=O)c1ccc(OC)cc1` (stereo not shown) [compound 315, N-{1-methylcarbamoyl-2-[3-chloro-5-(trifluoromethyl)-2-pyridinyl]ethyl}-4-methoxybenzamide], the “effectiveness on Botrytis cinerea” value with Botrytis cinerea was “zero effectiveness”.

For `CNC(=O)C(Cc1ncc(C(F)(F)F)cc1Cl)NC(=O)c1ccc(-c2ccccc2)cc1` (stereo not shown) [compound 316, N-{1-methylcarbamoyl-2-[3-chloro-5-(trifluoromethyl)-2-pyridinyl]-ethyl}-4-phenylbenzamide], the “effectiveness on Botrytis cinerea” value with Botrytis cinerea is “zero effectiveness”. The “effectiveness on Alternaria brassicae” value in the experiment with Alternaria brassicae was “poor effectiveness”.
